PMC6152131, “Pharmacokinetic Study of Biotransformation Products from an Anxiolytic Fraction of Tilia americana” (Molecules : A Journal of Synthetic Chemistry and Natural …, 2017)

What was measured:
[1] = Pharmacokinetic analysis, two-compartment model (PKSolver); assay type: in vivo, ICR mice
Protocol: The data shown in Table 2 were applied to the program PKSolver. After a single oral administration of 200 mg/kg of the anxiolitic fraction of T. americana, the behavior of the concentration-time data allowed us to determine the main pharmacokinetic parameters under a two-compartment model (Table 3), and the same program provided the graphical behavior of the variables and the adjustment to the two-compartment model.
To evaluate the suitability of the assay for the pharmacokinetic studies, 200 mg/kg of the active fraction was orally administered to the animals. Ten animals were used in each group at different times (0, 5, 10, 15, 30, 60, 120, 240, 480, 720, and 1440 min). Pharmacokinetic calculations were performed using the observed data. All data was subsequently processed using the PKSolver add-in program for Microsoft Excel written in Visual Basic for Applications. All values obtained were expressed in mean ± standard deviation.
For the pharmacokinetic assay, the selection was made either from a one-compartment or a two-compartment model, with the use of both the Akaike information criterion (AIC) and the Schwarz criterion (SC). Using these two criteria, one can select which model is more suited to being adjusted, to the point where it reaches the lowest values of the AIC or SC criteria, which means that the chosen model is more parsimonious (less parameters required) and best fits the data (low error prediction).

[2] = Stability of flavonoids and biotransformation products in mouse plasma under different handling conditions; assay type: in vitro ADME, mice; conditions: for Accuracy Bias 0 h / Observed Conc. 0 h / Accuracy Bias 8 h / Observed Conc. 8 h / Accuracy Bias 24 h / Observed Conc. 24 h: room temperature (25 °C); for Observed Conc. 0 h / Observed Conc. 8 h / Observed Conc. 24 h / Observed Conc. Autosampler (4 °C; 8 h) / Observed Conc. Long-term (−70 °C; 1 month): n = 6; for Accuracy Bias Autosampler (4 °C; 8 h) / Accuracy Bias Long-term (−70°C; 1 month) / Observed Conc. Autosampler (4 °C; 8 h) / Observed Conc. Long-term (−70 °C; 1 month): storage stability
In short: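 Mouse plasma QC samples containing the flavonoids and their biotransformation products were tested for stability across storage and handling conditions, including long-term, autosampler and bench-top tests. Samples were extracted with methanol, filtered, and analyzed by HPLC on an RP-18e column with acetonitrile–water (55:45) at 1 mL/min and detection at λ = 220 nm. Results were compared against fresh QC samples; stability required deviation below 15%.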

[3] = Plasma concentration after a single oral dose of the anxiolytic fraction (HPLC); assay type: in vivo, ICR mice; conditions: mouse, plasma, ICR mice, n = 10
In short: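 Animals dosed orally with 200 mg/kg of active fraction; retro-orbital blood taken from separate groups of ten at 0–1440 min. Lyophilized plasma extracted in methanol and analysed by RP-18 HPLC with diode-array detection at 220 nm against a calibration curve; PK parameters from observed data, mean ± SD.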

[4] = mouse, oral 200 mg/kg anxiolytic fraction, ICR mice plasma, two-compartment model
[5] = oral 200 mg/kg anxiolytic fraction, ICR mice plasma, two-compartment model
[6] = oral 200 mg/kg anxiolytic fraction, ICR mice plasma, two-compartment model, n = 10
[7] = high nominal conc. (7.00; 44.37; 4.50; 31.25 µg/mL)
[8] = low nominal conc. (1.75; 11.02; 1.12; 1.95 µg/mL)
[9] = medium nominal conc. (3.50; 22.18; 2.24; 7.81 µg/mL)

O=C(O)Cc1ccc(O)c(O)c1 [DOPAC, 3,4-dihydroxyphenylacetic acid]
CL/F, times lower than m-HPAA ([1]; after oral administration): 30 times
CL/F, times lower than p-HPAA ([1]; after oral administration): 20 times
AUC(0-inf) [1, 4]: 3850 µg·h/mL
Cmax [1, 4]: 7180 ng/mL
Tmax [1, 4]: 0.215 h
AUC(0-t) ([1]; mouse, oral 200 mg/kg anxiolytic fraction, ICR mice plasma, two-compartment model, read-out: AUC0→1440 (converted)): 146 µg·h/mL
MRT ([1]; mouse, oral 200 mg/kg anxiolytic fraction, ICR mice plasma, two-compartment model, read-out: MRT (mean residence time) (converted)): 625 h
k el ([1]; mouse, oral 200 mg/kg anxiolytic fraction, ICR mice plasma, two-compartment model, read-out: k10 (apparent first-order elimination rate constant from the central compartment) (converted)): 5.3e-07 s⁻¹
half-life ([1]; mouse, oral 200 mg/kg anxiolytic fraction, ICR mice plasma, two-compartment model, read-out: t1/2β): 434 h
CL/F (apparent clearance) [1, 5]: 0.0008 (mg/Kg)/(μg/mL)/min
V/F (apparent volume of distribution) [1, 5]: 27.21 (mg/Kg)/(µg/mL)
k12 (transfer rate constant central to peripheral compartment) [1, 5]: 0.002 min⁻¹
k21 (transfer rate constant peripheral to central compartment) [1, 5]: 0.0096 min⁻¹
ka (apparent first-order absorption rate constant) [1, 5]: 0.43 min⁻¹
t1/2ka (absorption half time) [1, 5]: 1.61 min
t1/2α [1, 5]: 0.9992 h
α [1, 5]: 0.01 min⁻¹
β [1, 5]: 2.66e-05 min⁻¹
A (plasma concentration coefficient, central compartment) [1, 6]: 1.23 µg/mL
B (plasma concentration coefficient, peripheral compartment) [1, 6]: 6.16 µg/mL
index: relation between rate constants of k12 with respect to k21 ([1]; two-compartment model): 0.20
Accuracy Bias 0 h ([2]; high nominal conc.): 0.26%
Observed Conc. 0 h ([2]; high nominal conc. (rutin 7.00; quercetin glucoside, quercitrin, tiliroside 44.37; kaempferol 4.50; m-HPAA, p-HPAA, DOPAC 31.25 µg/mL)): 31.61 ± 0.26 µg/mL
Accuracy Bias 0 h ([2]; low nominal conc.): 0.02%
Observed Conc. 0 h ([2]; low nominal conc. (rutin 1.75; quercetin glucoside, quercitrin, tiliroside 11.02; kaempferol 1.12; m-HPAA, p-HPAA, DOPAC 1.95 µg/mL)): 1.98 ± 0.020 µg/mL
Accuracy Bias 0 h ([2]; medium nominal conc.): 0.03%
Observed Conc. 0 h ([2]; medium nominal conc. (rutin 3.50; quercetin glucoside, quercitrin, tiliroside 22.18; kaempferol 2.24; m-HPAA, p-HPAA, DOPAC 7.81 µg/mL)): 7.85 ± 0.032 µg/mL
Accuracy Bias 8 h ([2]; high nominal conc.): 0.25%
Observed Conc. 8 h [2, 7]: 31.64 ± 0.24 µg/mL
Accuracy Bias 8 h ([2]; low nominal conc.): 0.03%
Observed Conc. 8 h [2, 8]: 1.92 ± 0.02 µg/mL
Accuracy Bias 8 h ([2]; medium nominal conc.): 0.03%
Observed Conc. 8 h [2, 9]: 7.86 ± 0.03 µg/mL
Accuracy Bias 24 h ([2]; high nominal conc.): 0.19%
Observed Conc. 24 h [2, 7]: 31.53 ± 0.19 µg/mL
Accuracy Bias 24 h ([2]; low nominal conc.): 0.03%
Observed Conc. 24 h [2, 8]: 1.91 ± 0.03 µg/mL
Accuracy Bias 24 h ([2]; medium nominal conc.): 0.02%
Observed Conc. 24 h [2, 9]: 7.78 ± 0.02 µg/mL
Accuracy Bias Autosampler (4 °C; 8 h) ([2]; high nominal conc.): 2.23%
Accuracy Bias Long-term (−70°C; 1 month) ([2]; high nominal conc.): 2.11%
Observed Conc. Autosampler (4 °C; 8 h) [2, 7]: 31.61 ± 0.19 µg/mL
Observed Conc. Long-term (−70 °C; 1 month) [2, 7]: 31.53 ± 0.25 µg/mL
Accuracy Bias Autosampler (4 °C; 8 h) ([2]; low nominal conc.): 0.88%
Accuracy Bias Long-term (−70°C; 1 month) ([2]; low nominal conc.): 1.15%
Observed Conc. Autosampler (4 °C; 8 h) [2, 8]: 1.91 ± 0.03 µg/mL
Observed Conc. Long-term (−70 °C; 1 month) [2, 8]: 1.99 ± 0.03 µg/mL
Accuracy Bias Autosampler (4 °C; 8 h) ([2]; medium nominal conc.): 0.38%
Accuracy Bias Long-term (−70°C; 1 month) ([2]; medium nominal conc.): 0.58%
Observed Conc. Autosampler (4 °C; 8 h) [2, 9]: 7.78 ± 0.02 µg/mL
Observed Conc. Long-term (−70 °C; 1 month) [2, 9]: 7.85 ± 0.03 µg/mL
concentration at 5 min ([3]; 5 min after single oral dose of 200 mg/kg of the anxiolytic fraction, ND = not detected): 6600 ± 430 ng/mL
concentration at 10 min ([3]; 10 min after single oral dose of 200 mg/kg of the anxiolytic fraction): 6430 ± 350 ng/mL
concentration at 15 min ([3]; 15 min after single oral dose of 200 mg/kg of the anxiolytic fraction): 7730 ± 610 ng/mL
concentration at 30 min ([3]; 30 min after single oral dose of 200 mg/kg of the anxiolytic fraction): 7170 ± 520 ng/mL
concentration at 60 min ([3]; 60 min after single oral dose of 200 mg/kg of the anxiolytic fraction): 6880 ± 430 ng/mL
concentration at 120 min ([3]; 120 min after single oral dose of 200 mg/kg of the anxiolytic fraction): 6340 ± 410 ng/mL
concentration at 240 min ([3]; 240 min after single oral dose of 200 mg/kg of the anxiolytic fraction): 6260 ± 320 ng/mL
concentration at 480 min ([3]; 480 min after single oral dose of 200 mg/kg of the anxiolytic fraction): 6100 ± 340 ng/mL
concentration at 720 min ([3]; 720 min after single oral dose of 200 mg/kg of the anxiolytic fraction): 6010 ± 540 ng/mL
concentration at 1440 min ([3]; 1440 min after single oral dose of 200 mg/kg of the anxiolytic fraction): 5930 ± 490 ng/mL
